ChEMBL document CHEMBL3045770, “Design and synthesis of some thieno[2,3-c]pyridazine derivatives of expected anticancer activity” (2013)

Assays:
Format in all cases: functional
MOLT-4 = experiment: Cytotoxicity against Homo sapiens (human) MOLT4 assessed as cell growth at 10 uM after 48 hr by SRB assay relative to control; conditions: MOLT-4, 48 h, read-out: Activity
SNB-75 = experiment: Cytotoxicity against Homo sapiens (human) SNB75 assessed as cell growth at 10 uM after 48 hr by SRB assay relative to control; conditions: SNB-75, 48 h, read-out: Activity
RXF 393 = experiment: Cytotoxicity against Homo sapiens (human) RXF393 assessed as cell growth at 10 uM after 48 hr by SRB assay relative to control; conditions: RXF 393, 48 h, read-out: Activity
DU-145 = experiment: Cytotoxicity against Homo sapiens (human) DU145 assessed as cell growth at 10 uM after 48 hr by SRB assay relative to control; conditions: DU-145, 48 h, read-out: Activity
NCI-H226 = experiment: Cytotoxicity against Homo sapiens (human) NCI-H226 assessed as cell growth at 10 uM after 48 hr by SRB assay relative to control; conditions: NCI-H226, 48 h, read-out: Activity
SW-620 = experiment: Cytotoxicity against Homo sapiens (human) SW620 assessed as cell growth at 10 uM after 48 hr by SRB assay relative to control; conditions: SW-620, 48 h, read-out: Activity
KM12 = experiment: Cytotoxicity against Homo sapiens (human) KM12 assessed as cell growth at 10 uM after 48 hr by SRB assay relative to control; conditions: KM12, 48 h, read-out: Activity
U-251 = experiment: Cytotoxicity against Homo sapiens (human) U251 assessed as cell growth at 10 uM after 48 hr by SRB assay relative to control; conditions: U-251, 48 h, read-out: Activity
NCI-H460 = experiment: Cytotoxicity against Homo sapiens (human) NCI-H460 assessed as cell growth at 10 uM after 48 hr by SRB assay relative to control; conditions: NCI-H460, 48 h, read-out: Activity
SK-MEL-5 = experiment: Cytotoxicity against Homo sapiens (human) SK-MEL-5 assessed as cell growth at 10 uM after 48 hr by SRB assay relative to control; conditions: SK-MEL-5, 48 h, read-out: Activity
HCT-15 = experiment: Cytotoxicity against Homo sapiens (human) HCT15 assessed as cell growth at 10 uM after 48 hr by SRB assay relative to control; conditions: HCT-15, 48 h, read-out: Activity
TK-10 = experiment: Cytotoxicity against Homo sapiens (human) TK10 assessed as cell growth at 10 uM after 48 hr by SRB assay relative to control; conditions: TK-10, 48 h, read-out: Activity
SNB-19 = experiment: Cytotoxicity against Homo sapiens (human) SNB19 assessed as cell growth at 10 uM after 48 hr by SRB assay relative to control; conditions: SNB-19, 48 h, read-out: Activity
BT-549 = experiment: Cytotoxicity against Homo sapiens (human) BT549 assessed as cell growth at 10 uM after 48 hr by SRB assay relative to control; conditions: BT-549, 48 h, read-out: Activity
MCF7 = experiment: Cytotoxicity against Homo sapiens (human) MCF7 assessed as cell growth at 10 uM after 48 hr by SRB assay relative to control; conditions: MCF7, 48 h, read-out: Activity
SK-OV-3 = experiment: Cytotoxicity against Homo sapiens (human) SKOV3 assessed as cell growth at 10 uM after 48 hr by SRB assay relative to control; conditions: SK-OV-3, 48 h, read-out: Activity
SF-268 = experiment: Cytotoxicity against Homo sapiens (human) SF268 assessed as cell growth at 10 uM after 48 hr by SRB assay relative to control; conditions: SF-268, 48 h, read-out: Activity
UACC-62 = experiment: Cytotoxicity against Homo sapiens (human) UACC62 assessed as cell growth at 10 uM after 48 hr by SRB assay relative to control; conditions: UACC-62, 48 h, read-out: Activity
MDA-MB-231 = experiment: Cytotoxicity against Homo sapiens (human) MDA-MB-231 assessed as cell growth at 10 uM after 48 hr by SRB assay relative to control; conditions: MDA-MB-231, 48 h, read-out: Activity
SK-MEL-2 = experiment: Cytotoxicity against Homo sapiens (human) SK-MEL-2 assessed as cell growth at 10 uM after 48 hr by SRB assay relative to control; conditions: SK-MEL-2, 48 h, read-out: Activity
EKVX = experiment: Cytotoxicity against Homo sapiens (human) EKVX assessed as cell growth at 10 uM after 48 hr by SRB assay relative to control; conditions: read-out: Activity
SN12C = experiment: Cytotoxicity against Homo sapiens (human) SN12C assessed as cell growth at 10 uM after 48 hr by SRB assay relative to control; conditions: read-out: Activity
COLO 205 = experiment: Cytotoxicity against Homo sapiens (human) COLO205 assessed as cell growth at 10 uM after 48 hr by SRB assay relative to control; conditions: COLO 205, 48 h, read-out: Activity
HT-29 = experiment: Cytotoxicity against Homo sapiens (human) HT-29 assessed as cell growth at 10 uM after 48 hr by SRB assay relative to control; conditions: HT-29, 48 h, read-out: Activity
MDA-MB-468 = experiment: Cytotoxicity against Homo sapiens (human) MDA-MB-468 assessed as cell growth at 10 uM after 48 hr by SRB assay relative to control; conditions: MDA-MB-468, 48 h, read-out: Activity
ACHN = experiment: Cytotoxicity against Homo sapiens (human) ACHN assessed as cell growth at 10 uM after 48 hr by SRB assay relative to control; conditions: read-out: Activity
OVCAR-3 = experiment: Cytotoxicity against Homo sapiens (human) OVCAR3 assessed as cell growth at 10 uM after 48 hr by SRB assay relative to control; conditions: OVCAR-3, 48 h, read-out: Activity
HOP-92 = experiment: Cytotoxicity against Homo sapiens (human) HOP92 assessed as cell growth at 10 uM after 48 hr by SRB assay relative to control; conditions: HOP-92, 48 h, read-out: Activity
SK-MEL-28 = experiment: Cytotoxicity against Homo sapiens (human) SK-MEL-28 assessed as cell growth at 10 uM after 48 hr by SRB assay relative to control; conditions: SK-MEL-28, 48 h, read-out: Activity
HL-60(TB) = experiment: Cytotoxicity against Homo sapiens (human) HL-60(TB) assessed as cell growth at 10 uM after 48 hr by SRB assay relative to control; conditions: HL-60, 48 h, read-out: Activity
[1] = Cytotoxicity against Homo sapiens (human) NCI-ADR-RES assessed as cell growth at 10 uM after 48 hr by SRB assay relative to control; conditions: read-out: Activity
HCC 2998 = experiment: Cytotoxicity against Homo sapiens (human) HCC2998 assessed as cell growth at 10 uM after 48 hr by SRB assay relative to control; conditions: HCC 2998, 48 h, read-out: Activity

Structure (SMILES)	growth at 10 µM (MOLT-4)	growth at 10 µM (SNB-75)	growth at 10 µM (RXF 393)	growth at 10 µM (DU-145)	growth at 10 µM (NCI-H226)	growth at 10 µM (SW-620)	growth at 10 µM (KM12)	growth at 10 µM (NCI-H460)	growth at 10 µM (SK-MEL-5)	growth at 10 µM (HCT-15)	growth at 10 µM (TK-10)	growth at 10 µM (SNB-19)	growth at 10 µM (BT-549)	growth at 10 µM (SF-268)	growth at 10 µM (UACC-62)	growth at 10 µM (MDA-MB-231)	growth at 10 µM (SK-MEL-2)	growth at 10 µM (EKVX)	growth at 10 µM (SN12C)	growth at 10 µM (COLO 205)	further results
Oc1c(-c2n[nH]c(=S)o2)sc2nnc(-c3ccccc3)c(-c3ccccc3)c12	91%	72.6%	109%	112%	91.5%	124%	119%	116%	94.7%	103%	103%	103%	99.5%	102%	94.3%	109%	106%	102%	94%	106%	growth at 10 µM (U-251): 106%; growth at 10 µM (MCF7): 92%; growth at 10 µM (SK-OV-3): 96.4%; growth at 10 µM (HT-29): 114%; growth at 10 µM (MDA-MB-468): 108%; growth at 10 µM (ACHN): 92.4%; growth at 10 µM (OVCAR-3): 115%; growth at 10 µM (HOP-92): 72.3%; growth at 10 µM (SK-MEL-28): 102%; growth at 10 µM (HL-60(TB)): 101%
Oc1c(-c2nnc(-c3ccccc3)o2)sc2nnc(-c3ccccc3)c(-c3ccccc3)c12	47.9%	84.4%	85.6%	106%	85%	64.4%	72.3%	39.8%	71.2%	36.6%	90.6%	57.2%	74.9%	85.5%	51.1%	89.2%	106%	94.1%	61.4%	102%	growth at 10 µM (MCF7): 58%; growth at 10 µM (SK-OV-3): 83%; growth at 10 µM [1]: 18.8%; growth at 10 µM (HT-29): 103%; growth at 10 µM (MDA-MB-468): 64.7%; growth at 10 µM (HCC 2998): 70.4%; growth at 10 µM (ACHN): 67%; growth at 10 µM (OVCAR-3): 72.4%; growth at 10 µM (HOP-92): 81.7%; growth at 10 µM (SK-MEL-28): 85.2%; growth at 10 µM (HL-60(TB)): 83.2%
CCOC(=O)c1c(Nc2ccc(S(=O)(=O)Nc3nccs3)cc2)nnc(-c2ccccc2)c1-c1ccccc1	79.3%	104%	120%	114%	102%	131%	114%	111%	97.6%	106%	109%	108%	98.9%	112%	92.9%	115%	118%	102%	94.8%	114%	growth at 10 µM (U-251): 98.5%; growth at 10 µM (SK-OV-3): 106%; growth at 10 µM (HT-29): 116%; growth at 10 µM (MDA-MB-468): 110%; growth at 10 µM (ACHN): 102%; growth at 10 µM (OVCAR-3): 120%; growth at 10 µM (HOP-92): 84.3%; growth at 10 µM (SK-MEL-28): 113%; growth at 10 µM (HL-60(TB)): 104%
CSc1nnc(-c2sc3nnc(-c4ccccc4)c(-c4ccccc4)c3c2O)o1	61.9%	78.4%	82.6%	84.7%	87.7%	92.5%	72.9%	56.7%	83.5%	54.6%	100%	66.4%	74.1%	80.6%	58.9%	90.4%	102%	77.5%	75.7%	110%	growth at 10 µM (U-251): 62.9%; growth at 10 µM (MCF7): 83.5%; growth at 10 µM [1]: 85.5%; growth at 10 µM (HT-29): 107%; growth at 10 µM (MDA-MB-468): 78.9%; growth at 10 µM (ACHN): 83.6%; growth at 10 µM (OVCAR-3): 86.8%; growth at 10 µM (SK-MEL-28): 85.5%; growth at 10 µM (HL-60(TB)): 107%
CNc1nnc(-c2sc3nnc(-c4ccccc4)c(-c4ccccc4)c3c2O)s1	93.3%	87.9%	103%	135%	106%	105%	126%	106%	104%	98.9%	108%	105%	101%	106%	97.5%	104%	126%	112%	94.2%	131%	growth at 10 µM (MCF7): 88.7%; growth at 10 µM (SK-OV-3): 97.7%; growth at 10 µM [1]: 105%; growth at 10 µM (HT-29): 102%; growth at 10 µM (MDA-MB-468): 92.6%; growth at 10 µM (HCC 2998): 98.4%; growth at 10 µM (ACHN): 107%; growth at 10 µM (OVCAR-3): 116%; growth at 10 µM (HOP-92): 116%; growth at 10 µM (SK-MEL-28): 111%; growth at 10 µM (HL-60(TB)): 107%
CCOC(=O)c1c(Nc2ccc(S(N)(=O)=O)cc2)nnc(-c2ccccc2)c1-c1ccccc1	78.2%	84.6%	109%	120%	102%	105%	104%	108%	94.6%	93.4%	108%	108%	95%	105%	90.2%	108%	123%	105%	104%	113%	growth at 10 µM (U-251): 95%; growth at 10 µM (SK-OV-3): 108%; growth at 10 µM [1]: 96.8%; growth at 10 µM (HT-29): 118%; growth at 10 µM (MDA-MB-468): 97.9%; growth at 10 µM (HCC 2998): 96.8%; growth at 10 µM (ACHN): 97.6%; growth at 10 µM (OVCAR-3): 118%; growth at 10 µM (HOP-92): 86.5%; growth at 10 µM (SK-MEL-28): 107%; growth at 10 µM (HL-60(TB)): 71.2%
